Reference: ChEMBL document CHEMBL1201862, “PubChem BioAssay data set” (2004)
Activity calls are given as the source filed them.

Key:
[1] = Luminescence Cell-Based Dose Confirmation HTS to Identify Activators of 5'UTR Stem-Loop Driven Alpha-Synuclein mRNA Translation in H4 Neuroglioblastoma Cells. [Related pubchem assays: 1829 (Project Summary), 1814 (Primary HTS)]; assay type: functional
[2] = Luminescence Cell-Based Dose Response to Identify Activators of 5'UTR Stem-Loop Driven Prion Protein mRNA Translation in H4-C Neuroglioblastoma Cells. [Related pubchem assays: 1829 (Project Summary), 1814 (Primary HTS)]; assay type: functional
[3] = Luminescence Cell-Based Dose Response HTS to Identify Activators of Luciferase Translation or Activity in H4 […] Cells. [Related pubchem assays: 1829 (Project Summary), 1814 (Primary HTS)]; assay type: functional
[4] = system: H4; experiment: Luminescence Cell-Based Dose Response HTS to Identify Activators of 5'UTR Stem-Loop Driven Prion Protein mRNA Translation in H4 Neuroglioblastoma Cells. [Related pubchem assays: 1829 (Project Summary), 1814 (Primary HTS)]; assay type: functional; conditions: Homo sapiens
[5] = Luminescence Cell-Based Dose Response to Identify Activators of Luciferase Translation or Activity in H4-C Neuroglioblastoma Cells. [Related pubchem assays: 1829 (Project Summary), 1814 (Primary HTS)]; assay type: functional
[6] = Luminescence Cell-Based Dose Confirmation to Identify Activators of 5'UTR Stem-Loop Driven Alpha-Synuclein mRNA Translation in H4 Neuroglioblastoma Cells. [Related pubchem assays: 1829 (Project Summary), 1814 (Primary HTS)]; assay type: functional
[7] = biological target: T1, Calpain-2 catalytic subunit (Sus scrofa, UniProt P43367); experiment: m-calpain protease blockers, concentration series – biochemical, fluorogenic peptide substrate, dose response (AID 1420); assay type: functional
T1 sequence (P43367 whole entry): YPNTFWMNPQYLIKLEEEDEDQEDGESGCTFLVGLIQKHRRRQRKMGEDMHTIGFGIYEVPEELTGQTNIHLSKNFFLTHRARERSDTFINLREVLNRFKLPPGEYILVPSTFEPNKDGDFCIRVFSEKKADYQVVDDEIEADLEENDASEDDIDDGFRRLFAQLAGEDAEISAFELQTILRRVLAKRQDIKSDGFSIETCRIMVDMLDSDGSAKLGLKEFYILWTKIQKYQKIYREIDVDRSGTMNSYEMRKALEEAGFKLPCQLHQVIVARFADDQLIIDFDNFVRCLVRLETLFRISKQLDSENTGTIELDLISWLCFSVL

[8] = viability inhibitors of stage V gametocytes – luminescence, dose response (AID 1117278); assay type: functional, cell-based;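 also: gametocytes exposed to compound for 24 hours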
[9] = viability loss in human Jurkat cells – cell-based, luminescence, cytotoxicity control for P. falciparum gametocyte viability project, dose response (AID 1117277); assay type: functional;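 also: potency reflects loss of cellular ATP meaning fewer viable cells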
[10] = cells; assay type: functional
[11] = biological target: T2, DNA repair protein RAD52 homolog (Homo sapiens, UniProt P43351); assay type: functional, biochemical
T2 sequence (P43351 whole entry): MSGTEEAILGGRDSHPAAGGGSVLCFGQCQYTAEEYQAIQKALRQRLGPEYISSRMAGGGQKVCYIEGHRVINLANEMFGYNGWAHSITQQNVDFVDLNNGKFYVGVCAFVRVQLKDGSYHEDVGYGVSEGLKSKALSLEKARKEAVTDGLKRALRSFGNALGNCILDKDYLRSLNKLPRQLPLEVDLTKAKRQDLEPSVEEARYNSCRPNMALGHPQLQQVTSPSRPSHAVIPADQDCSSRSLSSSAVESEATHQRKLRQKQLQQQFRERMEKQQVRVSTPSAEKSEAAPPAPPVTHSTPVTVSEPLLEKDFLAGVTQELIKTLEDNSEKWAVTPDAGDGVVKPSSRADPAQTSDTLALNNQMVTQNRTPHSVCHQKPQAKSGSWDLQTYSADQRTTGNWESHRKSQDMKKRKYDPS

[12] = biological target: T3, DNA repair and recombination protein RAD54-like (Homo sapiens, UniProt Q92698); experiment: RAD54 Holliday junction migration blockers – biochemical, fluorescence, cherry-picked samples, dose series, confirmation (AID 651657); assay type: functional
T3 sequence (Q92698 whole entry): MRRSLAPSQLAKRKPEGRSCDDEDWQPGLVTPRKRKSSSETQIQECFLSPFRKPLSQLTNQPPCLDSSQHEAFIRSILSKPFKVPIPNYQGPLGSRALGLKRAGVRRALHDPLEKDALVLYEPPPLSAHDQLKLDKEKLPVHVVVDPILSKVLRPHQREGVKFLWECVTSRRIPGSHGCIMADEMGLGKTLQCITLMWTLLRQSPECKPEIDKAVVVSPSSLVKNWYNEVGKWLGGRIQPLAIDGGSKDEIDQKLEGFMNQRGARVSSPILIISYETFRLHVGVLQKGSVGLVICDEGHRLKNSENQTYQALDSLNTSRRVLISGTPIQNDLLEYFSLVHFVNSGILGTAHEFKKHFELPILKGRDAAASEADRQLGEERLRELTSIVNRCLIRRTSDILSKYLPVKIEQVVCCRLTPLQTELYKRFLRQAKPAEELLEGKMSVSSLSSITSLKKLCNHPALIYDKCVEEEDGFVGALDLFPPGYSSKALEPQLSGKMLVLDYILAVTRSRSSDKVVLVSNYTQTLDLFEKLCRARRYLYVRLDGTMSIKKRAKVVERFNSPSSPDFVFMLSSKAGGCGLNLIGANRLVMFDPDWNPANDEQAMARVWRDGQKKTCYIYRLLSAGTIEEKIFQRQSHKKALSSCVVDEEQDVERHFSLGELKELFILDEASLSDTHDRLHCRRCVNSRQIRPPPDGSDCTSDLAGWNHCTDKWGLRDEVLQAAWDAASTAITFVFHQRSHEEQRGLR

[13] = biological target: Prothrombin (Homo sapiens, UniProt P00734); experiment: Thrombin 1536 HTS Dose Response Confirmation. [Related pubchem assays: 1046 (Thrombin 1536 HTS; hits were confirmed in this assay)]; assay type: functional
[14] = Dd2 parasite growth inhibition in erythrocytes – SYBR Green, dry powder samples, set 9, dose response (AID 1159568); assay type: functional, cell-based
[15] = biological target: T4, Small ubiquitin-related modifier 1 (Homo sapiens, UniProt P63165); experiment: SUMO1 protein-protein binding blockers, potency – biochemical, FRET, dose response (AID 624383); assay type: functional; conditions: read-out: IC50_Mean
T4 sequence (P63165 whole entry): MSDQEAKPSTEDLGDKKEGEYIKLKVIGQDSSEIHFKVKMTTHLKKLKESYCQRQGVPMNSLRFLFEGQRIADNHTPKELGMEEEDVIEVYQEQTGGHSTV

[16] = biological target: T4, Small ubiquitin-related modifier 1; experiment: SUMO1 protein interaction blockers, potency – biochemical, fluorescence polarization, uHTS hits, dose response (AID 624382); assay type: functional; conditions: read-out: IC50_Mean
[17] = biological target: Nonstructural protein 1 (Influenza A virus, UniProt Q194T2); assay type: functional, Influenza A virus (A/California/07/2009(H1N1))
Sequence of Nonstructural protein 1 (Q194T2 whole entry): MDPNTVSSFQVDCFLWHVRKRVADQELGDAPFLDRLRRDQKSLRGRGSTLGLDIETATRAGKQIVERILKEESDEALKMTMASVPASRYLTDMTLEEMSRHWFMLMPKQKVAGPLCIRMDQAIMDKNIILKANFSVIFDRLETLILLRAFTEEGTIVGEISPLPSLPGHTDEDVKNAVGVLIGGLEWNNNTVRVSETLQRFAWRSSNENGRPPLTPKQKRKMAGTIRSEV

[18] = biological target: Albumin (Bos taurus, UniProt P02769); experiment: Counterscreen for inhibitors of T-cell receptor (TCR)-CD3 interaction: Fluorescence-based biochemical high throughput dose response assay to identify inhibitors of T-cell receptor (TCR)-CD3 interaction using a TAMRA-labeled BSA probe.; assay type: functional
Sequence of Albumin (P02769 whole entry, the tested form may be a part): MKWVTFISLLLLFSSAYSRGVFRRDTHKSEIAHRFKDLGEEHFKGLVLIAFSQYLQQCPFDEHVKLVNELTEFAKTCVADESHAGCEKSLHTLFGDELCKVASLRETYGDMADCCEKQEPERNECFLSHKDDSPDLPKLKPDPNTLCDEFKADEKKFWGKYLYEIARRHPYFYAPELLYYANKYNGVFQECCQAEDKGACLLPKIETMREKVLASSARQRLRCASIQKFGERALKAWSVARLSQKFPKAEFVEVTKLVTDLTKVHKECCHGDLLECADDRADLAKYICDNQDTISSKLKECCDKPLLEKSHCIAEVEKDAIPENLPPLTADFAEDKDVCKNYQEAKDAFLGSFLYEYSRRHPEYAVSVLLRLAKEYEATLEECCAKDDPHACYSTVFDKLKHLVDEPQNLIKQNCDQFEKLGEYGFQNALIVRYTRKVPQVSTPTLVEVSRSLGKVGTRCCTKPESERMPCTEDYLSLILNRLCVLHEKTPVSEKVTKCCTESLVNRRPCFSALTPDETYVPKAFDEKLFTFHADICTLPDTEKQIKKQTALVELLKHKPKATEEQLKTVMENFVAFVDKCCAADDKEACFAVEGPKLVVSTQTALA

[19] = biological target: T5, Carboxy-terminal domain RNA polymerase II polypeptide A small phosphatase 1 (Homo sapiens, UniProt Q9GZU7); experiment: CTDSP1 inhibitors, concentration-response, biochemical, absorbance readout, ultra-high-throughput screen actives (AID 540297); assay type: functional
T5 sequence (Q9GZU7 whole entry): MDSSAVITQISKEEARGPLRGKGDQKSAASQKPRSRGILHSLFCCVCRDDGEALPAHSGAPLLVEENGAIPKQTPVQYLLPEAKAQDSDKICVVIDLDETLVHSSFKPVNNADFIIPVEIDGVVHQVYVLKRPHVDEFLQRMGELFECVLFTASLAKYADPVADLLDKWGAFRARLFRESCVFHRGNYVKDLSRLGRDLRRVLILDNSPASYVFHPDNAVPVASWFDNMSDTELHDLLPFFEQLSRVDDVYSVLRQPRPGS

[20] = biological target: T6, Caspase-6 (Homo sapiens, UniProt P55212); experiment: inhibition of CASP6 peptide cleavage – biochemical, VEID-R110 fluorescence, cherry-pick, dose response (AID 720632)
T6 sequence (P55212 whole entry): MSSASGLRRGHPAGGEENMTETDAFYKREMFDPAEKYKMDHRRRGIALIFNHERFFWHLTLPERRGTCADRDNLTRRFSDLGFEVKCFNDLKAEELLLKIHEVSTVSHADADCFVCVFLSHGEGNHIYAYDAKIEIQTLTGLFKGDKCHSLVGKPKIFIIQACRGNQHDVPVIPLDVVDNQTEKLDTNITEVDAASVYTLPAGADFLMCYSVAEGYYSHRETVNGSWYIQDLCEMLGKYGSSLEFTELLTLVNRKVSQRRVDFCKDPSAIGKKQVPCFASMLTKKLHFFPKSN

[21] = Trypanosoma cruzi growth suppression in host cells – NIH3T3 host cells, beta-gal luminescence, confirmation (AID 2044); assay type: functional, cell-based;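 also: intracellular parasites grown in NIH/3T3 mouse fibroblasts as host cells; luminescent beta-galactosidase reporter signal from transgenic T. cruzi replicating inside host cells; inhibitors lower the luminescence signal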
[22] = NIH3T3 cell viability loss – ATP luminescence, mouse fibroblasts, counter-screen, dose response (AID 2010); assay type: functional, cell-based;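 also: cells exposed to compound for about 90 hours before reading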

## COc1ccccc1-c1ccc(NC2CCCCC2)nn1
[1]
  EC50: 0.6 µM (active)
[2]
  EC50: 1.68 µM (active)
[3]
  EC50: 52.7 µM (active)
[4]
  EC50: < 0.1 µM (active)
[5]
  EC50: > 12 µM (not active)
[6]
  EC50: 0.442 µM (active)

## COc1ccc(-c2cc(C(=O)NCc3cn(C)nc3C)c3ccccc3n2)cc1OC
[7]
  IC50: > 50 µM (not active)

## O=C(Nc1ncc(Cc2ccccc2)s1)C1=NCCN1
[8]
  IC50: > 109 µM (inactive)
[9]
  IC50: > 83.3 µM (inactive)
[10]
  IC50: 14 µM (active)

## Cc1cc(N2CCN(C)CC2)nc2ccc(NC(S)=NCCCN3CCN(C)CC3)cc12
[11]
  AC50: 3.59 µM (active)
[12]
  AC50: 24.6 µM (active)

## CCC(=O)n1nc(-c2ccccc2)nc1SCC(=O)Nc1ccc(C)cc1
[13]
  IC50: 1.22 µM (active)

## O=C(COC(=O)c1cccnc1)Nc1ccc(F)cc1
[8]
  IC50: > 109 µM (inactive)
[9]
  IC50: > 83.3 µM (inactive)

## Cc1sc2c(c1C)c(=O)n(-c1ccc(F)cc1)c(=O)n2CC(=O)NCc1ccco1
[7]
  IC50: 25.1 µM (not active)

## O=C(Nc1nc(-c2cccs2)cs1)c1ccc(Cl)cc1
[13]
  IC50: 4.5 µM (active)

## COc1cccc(S(=O)(=O)N2CCCCN3[C@H](CO)[C@H](c4ccc(C#CCC(C)C)cc4)[C@H]3C2)c1
[14]
  AC50: 2.41 µM (active)

## O=C(Nc1cc(F)ccc1F)N1CCCCN2[C@H](CO)[C@H](c3ccc(C4=CCCCC4)cc3)[C@@H]2C1
[14]
  AC50: 12.2 µM (active)

## Cc1cc(-c2cc(NC=O)c3ncc(-c4cccc(C(=O)NCCN(C)C)c4)n3c2)cc(C)c1O
[15]
  IC50: 20.2 µM (inactive)
[11]
  AC50: 1.54 µM (active)
[16]
  IC50: > 66.6 µM (inactive)
[12]
  AC50: 8.33 µM (active)

## CC1CCCCC12NC(=O)N(CC(=O)NCCc1ccccn1)C2=O (stereo not given)
[8]
  IC50: > 109 µM (inactive)
[9]
  IC50: > 83.3 µM (inactive)

## CC1(C)CC(=O)C(Sc2nnc(-c3ccc(O)cc3)n2CC2CCCO2)C(=O)C1 (stereo not given)
[8]
  IC50: > 109 µM (inactive)
[9]
  IC50: > 83.3 µM (inactive)

## N#C[C@H]1[C@@H](c2ccc(C3=CCCCC3)cc2)[C@@H](CO)N1C(=O)Nc1ccccc1F
[14]
  AC50: 15.8 µM (active)

## Cc1ccc(C)c(N=Nc2nc3ccccc3n2C)c1
[2]
  EC50: 0.275 µM (active)
[17]
  IC50: 14.3 µM (active)
[3]
  EC50: 0.139 µM (inconclusive)
[4]
  EC50: < 0.1 µM (active)
[5]
  EC50: 0.281 µM (active)
[6]
  EC50: 0.393 µM (active)

## COc1cccc(NC(=O)c2ccc(NCCCN3CC(C)CC(C)C3)c([N+](=O)[O-])c2)c1 (stereo not given)
[7]
  IC50: 3.92 µM (not active)

## O=C(O)c1cnc2c([N+](=O)[O-])cccc2c1O
[18]
  IC50: > 94 µM (inactive)
[19]
  IC50: 5.65 µM (active)
[20]
  AC50: 5.77 µM (active)

## C[C@@H]1CCCCO[C@@H](CN(C)S(=O)(=O)c2ccccc2)[C@H](C)CN([C@H](C)CO)C(=O)c2cc(NC(=O)Nc3ccc4c(c3)OCO4)ccc2O1
[14]
  AC50: 1.17 µM (active)

## Cc1ccc(NC(=O)c2cc(N3C(=O)C4CCCCC4C3=O)ccc2N2CCOCC2)cc1 (stereo not given)
[7]
  IC50: 14.9 µM (not active)

## Cc1ccc2nc3c(c(Nc4ccc(O)cc4)c2c1)CCC3
[11]
  AC50: 20.5 µM (active)
[21]
  EC50: 1.06 µM (active)
[12]
  AC50: 39 µM (active)
[22]
  EC50: 8.88 µM (active)

## CCn1c(C)nc2cc(C(=O)NNC(=S)NC(=O)c3ccccc3)ccc21
[18]
  IC50: > 94.1 µM (inactive)

## Cc1ccnc(SCc2nc3ccccc3s2)n1
[1]
  EC50: < 0.1 µM (active)
[2]
  EC50: 3.21 µM (active)
[4]
  EC50: 6.54 µM (active)
[5]
  EC50: > 12 µM (not active)
[6]
  EC50: > 12 µM (inconclusive)
